From ChEMBL document CHEMBL1201862, “PubChem BioAssay data set” (2004)
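The compound was tested at five concentrations on cells cultured in 96-well plates, with a 48-hour exposure period. The concentration for 50% growth inhibition is given as GI50.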 Calls of active or inactive are those of the source. Rule as the data show it: active = GI50 up to about 1.1 µM and inactive = higher.

Legend:
Assay in all cases: inhibition of tumour cell growth, NCI panel, 48 h
786-0 = test system: 786-0
A498 = test system: A498
A549 = test system: A549
ACHN = test system: ACHN
CAKI-1 = test system: CAKI-1
CCRF-CEM = test system: CCRF-CEM
COLO 205 = test system: COLO 205
DU-145 = test system: DU-145
EKVX = test system: EKVX
HCC 2998 = test system: HCC 2998
HCT-116 = test system: HCT-116
HCT-15 = test system: HCT-15
HL-60 = test system: HL-60
HOP-62 = test system: HOP-62
HOP-92 = test system: HOP-92
HT-29 = test system: HT-29
Hs-578T = test system: Hs-578T
IGROV-1 = test system: IGROV-1
K562 = test system: K562
KM12 = test system: KM12
LOX IMVI = test system: LOX IMVI
M14 = test system: M14
MCF7 = test system: MCF7
MDA-MB-231 = test system: MDA-MB-231
MDA-MB-435 = test system: MDA-MB-435
MOLT-4 = test system: MOLT-4
Malme-3M = test system: Malme-3M
NCI-H226 = test system: NCI-H226
NCI-H23 = test system: NCI-H23
NCI-H460 = test system: NCI-H460
NCI-H522 = test system: NCI-H522
NCI/ADR-RES = test system: NCI/ADR-RES
OVCAR-3 = test system: OVCAR-3
OVCAR-4 = test system: OVCAR-4
OVCAR-5 = test system: OVCAR-5
OVCAR-8 = test system: OVCAR-8
PC-3 = test system: PC-3
RPMI-8226 = test system: RPMI-8226
RXF 393 = test system: RXF 393
SF-268 = test system: SF-268
SF-295 = test system: SF-295
SF-539 = test system: SF-539
SK-MEL-28 = test system: SK-MEL-28
SK-MEL-2 = test system: SK-MEL-2
SK-MEL-5 = test system: SK-MEL-5
SK-OV-3 = test system: SK-OV-3
SN12C = test system: SN12C
SNB-19 = test system: SNB-19
SNB-75 = test system: SNB-75
SR = test system: SR
SW-620 = test system: SW-620
T47D = test system: T47D
TK-10 = test system: TK-10
U-251 = test system: U-251
UACC-257 = test system: UACC-257
UACC-62 = test system: UACC-62
UO-31 = test system: UO-31
MDA-N = test system: MDA-N

Measured: GI50

CC(=O)c1sc2c(c1OC(=O)c1ccc(Cl)cc1)c(=O)n(-c1ccccc1)c(=S)n2-c1ccccc1
active: A498 1.08 µM | CCRF-CEM 1.06 µM | HT-29 0.946 µM | SF-295 0.953 µM
inactive: 786-0 3.52 µM | A549 25.4 µM | ACHN 2.96 µM | CAKI-1 3.39 µM | COLO 205 3.53 µM | DU-145 25.9 µM | EKVX 11.4 µM | HCC 2998 19.1 µM | HCT-116 9.08 µM | HL-60 9.23 µM | HOP-62 3.85 µM | HOP-92 3.25 µM | Hs-578T 2.08 µM | IGROV-1 8.89 µM | K562 9.04 µM | KM12 10.9 µM | LOX IMVI 2.32 µM | M14 1.18 µM | MCF7 23.2 µM | MDA-MB-231 3.91 µM | MDA-MB-435 4.14 µM | MOLT-4 1.56 µM | Malme-3M 1.94 µM | NCI-H226 1.59 µM | NCI-H23 17.5 µM | NCI-H460 4.86 µM | NCI-H522 1.53 µM | NCI/ADR-RES 4.73 µM | OVCAR-3 14.2 µM | OVCAR-4 22.3 µM | OVCAR-5 2.77 µM | OVCAR-8 3.48 µM | PC-3 3.56 µM | RPMI-8226 1.21 µM | RXF 393 2.22 µM | SF-268 4.56 µM | SF-539 1.87 µM | SK-MEL-28 2.79 µM | SK-MEL-2 1.27 µM | SK-MEL-5 2 µM | SK-OV-3 1.21 µM | SN12C 2.06 µM | SNB-19 3.56 µM | SNB-75 2.99 µM | SR 3.88 µM | SW-620 12.7 µM | T47D 12.2 µM | TK-10 22.4 µM | U-251 2.82 µM | UACC-257 5.19 µM | UACC-62 15.7 µM | UO-31 3.06 µM
9.18 µM: HCT-15

O=C1C(Br)=CC2(C=C1Br)CCNC1=C2C(=O)c2cccnc2C1=O
5.14 µM: HCT-15
inactive: 786-0 15.3 µM | A549 14.8 µM | ACHN 17 µM | CAKI-1 17.4 µM | CCRF-CEM 6.22 µM | COLO 205 16.4 µM | DU-145 11.4 µM | EKVX 15 µM | HCC 2998 18 µM | HCT-116 13.1 µM | HL-60 3.49 µM | HOP-62 8.93 µM | HOP-92 16 µM | HT-29 18.2 µM | Hs-578T 5.42 µM | IGROV-1 9.18 µM | K562 2.44 µM | KM12 16.1 µM | LOX IMVI 5.48 µM | M14 8.65 µM | MCF7 13.8 µM | MDA-MB-231 14.1 µM | MDA-MB-435 1.89 µM | MDA-N 1.77 µM | MOLT-4 5.69 µM | Malme-3M 9.46 µM | NCI-H226 16.6 µM | NCI-H23 4.07 µM | NCI-H460 4.13 µM | NCI-H522 4.65 µM | NCI/ADR-RES 20.8 µM | OVCAR-3 6.01 µM | OVCAR-4 17.2 µM | OVCAR-5 17.4 µM | OVCAR-8 15.8 µM | PC-3 13.4 µM | RPMI-8226 8.93 µM | RXF 393 4.92 µM | SF-268 13.3 µM | SF-295 8.75 µM | SF-539 8.99 µM | SK-MEL-28 14.2 µM | SK-MEL-2 2.69 µM | SK-MEL-5 3.77 µM | SK-OV-3 16.9 µM | SN12C 12.5 µM | SNB-19 7.23 µM | SNB-75 10.7 µM | SR 2.93 µM | SW-620 11.5 µM | TK-10 19.8 µM | U-251 17.6 µM | UACC-257 8.36 µM | UACC-62 3.89 µM | UO-31 17.5 µM
